Measured values from patent publication US20240158446A1, “CYCLIC COMPOUND HAVING SELECTIVE INHIBITORY ACTION ON KRAS OVER HRAS AND NRAS” (CHUGAI SEIYAKU KABUSHIKI KAISHA, priority 2021, published 2024).

Legend:
[1] = target: GDP-bound KRAS wild-type protein (Homo sapiens, UniProt P01116); assay: Binding to KRAS by surface plasmon resonance (SPR), Single Cycle Kinetics; settings: SPR, Single Cycle Kinetics, GDP-bound KRAS wild-type protein; read-out: KRAS KD
[2] = system: human lung cancer strain NCI-H441;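 further: cell proliferation inhibition after four days measured by CellTiter-Glo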
[3] = target: GDP-bound HRAS wild-type protein (Homo sapiens, UniProt P01112); assay: Binding to HRAS by surface plasmon resonance (SPR), Single Cycle Kinetics; settings: SPR, GDP-bound HRAS wild-type protein vs GDP-bound KRAS wild-type protein
GDP-bound HRAS wild-type protein, sequence (P01112 whole entry): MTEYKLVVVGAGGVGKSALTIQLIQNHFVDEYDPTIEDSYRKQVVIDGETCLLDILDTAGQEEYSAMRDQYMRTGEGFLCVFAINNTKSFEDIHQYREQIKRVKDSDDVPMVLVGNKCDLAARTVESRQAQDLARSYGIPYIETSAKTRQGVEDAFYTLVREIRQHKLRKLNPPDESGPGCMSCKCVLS

[4] = target: GDP-bound NRAS wild-type protein (Homo sapiens, UniProt P01111); assay: Binding to NRAS by surface plasmon resonance (SPR), Single Cycle Kinetics; settings: SPR, GDP-bound NRAS wild-type protein vs GDP-bound KRAS wild-type protein
GDP-bound NRAS wild-type protein, sequence (P01111 whole entry): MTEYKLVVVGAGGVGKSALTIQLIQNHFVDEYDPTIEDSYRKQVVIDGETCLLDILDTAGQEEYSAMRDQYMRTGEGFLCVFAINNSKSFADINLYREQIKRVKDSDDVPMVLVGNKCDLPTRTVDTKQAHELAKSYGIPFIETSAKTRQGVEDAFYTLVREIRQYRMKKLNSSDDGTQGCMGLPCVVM

GDP-bound KRAS wild-type protein, sequence (P01116 whole entry): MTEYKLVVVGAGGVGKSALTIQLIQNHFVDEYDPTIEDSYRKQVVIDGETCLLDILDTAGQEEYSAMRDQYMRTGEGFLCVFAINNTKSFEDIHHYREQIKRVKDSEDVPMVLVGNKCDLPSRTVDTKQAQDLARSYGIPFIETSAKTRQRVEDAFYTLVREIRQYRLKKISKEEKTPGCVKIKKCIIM

SMILES | Kd [1] | IC50 [2] | HRAS/KRAS (ratio of KD value for HRAS to KD value for KRAS) [3] | NRAS/KRAS (ratio of KD value for NRAS to KD value for KRAS) [4]
CCO[C@@H]1C[C@H]2C(=O)NC3(CCC3)C(=O)N(C)[C@@H](C3CCCC3)C(=O)N(C)[C@H](C(=O)N3CCOCC3)CC(=O)N(C)[C@@H](CC(F)F)C(=O)N[C@@H]([C@@H](C)CC)C(=O)N(C)CC(=O)N(C)[C@H]3CCCCCN(C3=O)[C@@H](Cc3ccc(F)cc3)C(=O)N(C)CC(=O)N[C@@H](CCc3cc(F)c(C(F)(F)F)c(F)c3)C(=O)N2C1 [PP1177] | 0.081 nM | 32.5 nM | B (a compound having 3 or more and less than 10 is denoted as B) | B (a compound having 3 or more and less than 10 is denoted as B)
CCO[C@@H]1C[C@H]2C(=O)NC3(CCC3)C(=O)N(C)[C@@H](C3CCCC3)C(=O)N(C)[C@H](C(=O)N3CCOCC3)CC(=O)N(C)[C@@H](CC3CC3)C(=O)N[C@@H]([C@@H](C)CC)C(=O)N(C)CC(=O)N(C)[C@H]3CCCCCN(C3=O)[C@@H](Cc3ccc(F)cc3)C(=O)N(C)CC(=O)N[C@@H](CCc3cc(F)c(C(F)(F)F)c(F)c3)C(=O)N2C1 [PP1178] | 0.16 nM | 26.3 nM | B (a compound having 3 or more and less than 10 is denoted as B) | B (a compound having 3 or more and less than 10 is denoted as B)
CCO[C@@H]1C[C@H]2C(=O)NC3(CCC3)C(=O)N(C)[C@@H](C3CCCC3)C(=O)N(C)[C@H](C(=O)N3CCOCC3)CC(=O)N(C)[C@@H](COC)C(=O)N[C@@H]([C@@H](C)CC)C(=O)N(C)CC(=O)N(C)[C@H]3CCCCCN(C3=O)[C@@H](Cc3ccc(F)cc3)C(=O)N(C)CC(=O)N[C@@H](CCc3cc(F)c(C(F)(F)F)c(F)c3)C(=O)N2C1 [PP1179] | 0.091 nM | 56.9 nM | B (a compound having 3 or more and less than 10 is denoted as B) | B (a compound having 3 or more and less than 10 is denoted as B)
CCO[C@@H]1C[C@H]2C(=O)NC3(CCC3)C(=O)N(C)[C@@H](C3CCCC3)C(=O)N(C)[C@H](C(=O)N3CCOCC3)CC(=O)N(C)[C@@H](CCOC)C(=O)N[C@@H]([C@@H](C)CC)C(=O)N(C)CC(=O)N(C)[C@H]3CCCCCN(C3=O)[C@@H](Cc3ccc(F)cc3)C(=O)N(C)CC(=O)N[C@@H](CCc3cc(F)c(C(F)(F)F)c(F)c3)C(=O)N2C1 [PP1180] | 0.17 nM | 46.9 nM | B (a compound having 3 or more and less than 10 is denoted as B) | B (a compound having 3 or more and less than 10 is denoted as B)
CCO[C@@H]1C[C@H]2C(=O)NC3(CCC3)C(=O)N(C)[C@@H](C3CCCC3)C(=O)N(C)[C@H](C(=O)N3CCOCC3)CC(=O)N(C)[C@@H](Cc3cccs3)C(=O)N[C@@H]([C@@H](C)CC)C(=O)N(C)CC(=O)N(C)[C@H]3CCCCCN(C3=O)[C@@H](Cc3ccc(F)cc3)C(=O)N(C)CC(=O)N[C@@H](CCc3cc(F)c(C(F)(F)F)c(F)c3)C(=O)N2C1 [PP1183] | 0.26 nM | 27.8 nM | B (a compound having 3 or more and less than 10 is denoted as B) | B (a compound having 3 or more and less than 10 is denoted as B)
CCO[C@@H]1C[C@H]2C(=O)NC3(CCC3)C(=O)N(C)[C@@H](C3CCCC3)C(=O)N(C)[C@H](C(=O)N3CCOCC3)CC(=O)N(C)[C@@H](Cc3ccsc3)C(=O)N[C@@H]([C@@H](C)CC)C(=O)N(C)CC(=O)N(C)[C@H]3CCCCCN(C3=O)[C@@H](Cc3ccc(F)cc3)C(=O)N(C)CC(=O)N[C@@H](CCc3cc(F)c(C(F)(F)F)c(F)c3)C(=O)N2C1 [PP1184] | 0.16 nM | 91.9 nM | B (a compound having 3 or more and less than 10 is denoted as B) | B (a compound having 3 or more and less than 10 is denoted as B)
CCO[C@@H]1C[C@H]2C(=O)NC3(CCC3)C(=O)N(C)[C@@H](C3CCCC3)C(=O)N(C)[C@H](C(=O)N3CCOCC3)CC(=O)N(C)[C@@H](Cc3ccccc3C#N)C(=O)N[C@@H]([C@@H](C)CC)C(=O)N(C)CC(=O)N(C)[C@H]3CCCCCN(C3=O)[C@@H](Cc3ccc(F)cc3)C(=O)N(C)CC(=O)N[C@@H](CCc3cc(F)c(C(F)(F)F)c(F)c3)C(=O)N2C1 [PP1185] | 0.5 nM | 175 nM | B (a compound having 3 or more and less than 10 is denoted as B) | B (a compound having 3 or more and less than 10 is denoted as B)
CCO[C@@H]1C[C@H]2C(=O)NC3(CCC3)C(=O)N(C)[C@@H](C3CCCC3)C(=O)N(C)[C@H](C(=O)N3CCOCC3)CC(=O)N(C)[C@@H](Cc3cccc(C#N)c3)C(=O)N[C@@H]([C@@H](C)CC)C(=O)N(C)CC(=O)N(C)[C@H]3CCCCCN(C3=O)[C@@H](Cc3ccc(F)cc3)C(=O)N(C)CC(=O)N[C@@H](CCc3cc(F)c(C(F)(F)F)c(F)c3)C(=O)N2C1 [PP1186] | 0.094 nM | 54.4 nM | B (a compound having 3 or more and less than 10 is denoted as B) | B (a compound having 3 or more and less than 10 is denoted as B)
CCO[C@@H]1C[C@H]2C(=O)NC3(CCC3)C(=O)N(C)[C@@H](C3CCCC3)C(=O)N(C)[C@H](C(=O)N3CCOCC3)CC(=O)N(C)[C@@H](Cc3ccc(C#N)cc3)C(=O)N[C@@H]([C@@H](C)CC)C(=O)N(C)CC(=O)N(C)[C@H]3CCCCCN(C3=O)[C@@H](Cc3ccc(F)cc3)C(=O)N(C)CC(=O)N[C@@H](CCc3cc(F)c(C(F)(F)F)c(F)c3)C(=O)N2C1 [PP1187] | 0.12 nM | 52.3 nM | B (a compound having 3 or more and less than 10 is denoted as B) | B (a compound having 3 or more and less than 10 is denoted as B)
CCO[C@@H]1C[C@H]2C(=O)NC3(CCC3)C(=O)N(C)[C@@H](C3CCCC3)C(=O)N(C)[C@H](C(=O)N3CCOCC3)CC(=O)N(C)[C@@H](Cc3ccc(Cl)c(Cl)c3)C(=O)N[C@@H]([C@@H](C)CC)C(=O)N(C)CC(=O)N(C)[C@H]3CCCCCN(C3=O)[C@@H](Cc3ccc(F)cc3)C(=O)N(C)CC(=O)N[C@@H](CCc3cc(F)c(C(F)(F)F)c(F)c3)C(=O)N2C1 [PP1188] | 0.43 nM | 33.5 nM | B (a compound having 3 or more and less than 10 is denoted as B) | B (a compound having 3 or more and less than 10 is denoted as B)
CCO[C@@H]1C[C@H]2C(=O)NC3(CCC3)C(=O)N(C)[C@@H](C3CCCC3)C(=O)N(C)[C@H](C(=O)N(C)C)CC(=O)N(C)[C@@H](C)C(=O)N[C@@H]([C@@H](C)CC)C(=O)N(C)CC(=O)N(C)[C@H]3CCCCCN(C3=O)[C@@H](Cc3ccc(F)cc3)C(=O)N(C)CC(=O)N[C@@H](CCc3cc(F)c(C(F)(F)F)c(F)c3)C(=O)N2C1 [PP1189] | 0.066 nM | 16.1 nM | B (a compound having 3 or more and less than 10 is denoted as B) | B (a compound having 3 or more and less than 10 is denoted as B)
